Test results: ChEMBL document CHEMBL4257449, “New N-(2-phenyl-4-oxo-1,3-thiazolidin-3-yl)-1,2-benzothiazole-3-carboxamides and acetamides as antimicrobial agents” (2017)
≈ marks a conversion by molar mass, not a printed value.

system: Penicillium ochrochloron; assay: Antifungal activity against Penicillium ochrochloron ATCC 9112 after 72 hrs by serial dilution method; type: functional; conditions: ATCC 9112, 72 h

MIC	SMILES
384 µM (≈ 150 µg/mL)	O=C(NN1C(=O)CSC1c1ccccc1Cl)c1nsc2ccccc12 (configuration not stated)

system: Bacillus cereus; assay: Antibacterial activity against Bacillus cereus after 24 hrs by microdilution method; type: functional; conditions: not given

MIC	SMILES
154 µM (≈ 60 µg/mL)	O=C(NN1C(=O)CSC1c1ccccc1Cl)c1nsc2ccccc12 (configuration not stated)

system: Bacillus cereus; assay: Bactericidal activity against Bacillus cereus incubated for 24 hrs followed by serial sub-cultivation and measured after 24 hrs by microdilution method; type: functional; conditions: not given

SMILES	MBC99.5
O=C(NN1C(=O)CSC1c1ccccc1Cl)c1nsc2ccccc12 (configuration not stated)	38.4 ×10⁻² umol/ml

system: Micrococcus flavus; assay: Antibacterial activity against Micrococcus flavus ATCC 10240 after 24 hrs by microdilution method; type: functional; conditions: ATCC 10240, 24 h

MIC	SMILES
384 µM (≈ 150 µg/mL)	O=C(NN1C(=O)CSC1c1ccccc1Cl)c1nsc2ccccc12 (configuration not stated)

system: Micrococcus flavus; assay: Bactericidal activity against Micrococcus flavus ATCC 10240 incubated for 24 hrs followed by serial sub-cultivation and measured after 24 hrs by microdilution method; type: functional; conditions: not given

SMILES	MBC99.5
O=C(NN1C(=O)CSC1c1ccccc1Cl)c1nsc2ccccc12 (configuration not stated)	76.8 ×10⁻² umol/ml

system: Staphylococcus aureus; assay: Antibacterial activity against Staphylococcus aureus ATCC 6538 after 24 hrs by microdilution method; type: functional; conditions: ATCC 6538, 24 h

MIC	SMILES
102 µM (≈ 39.8 µg/mL)	O=C(NN1C(=O)CSC1c1ccccc1Cl)c1nsc2ccccc12 (configuration not stated)

system: Staphylococcus aureus; assay: Bactericidal activity against Staphylococcus aureus ATCC 6538 incubated for 24 hrs followed by serial sub-cultivation and measured after 24 hrs by microdilution method; type: functional; conditions: not given

SMILES	MBC99.5
O=C(NN1C(=O)CSC1c1ccccc1Cl)c1nsc2ccccc12 (configuration not stated)	38.4 ×10⁻² umol/ml

system: Listeria monocytogenes; assay: Antibacterial activity against Listeria monocytogenes NCTC 7973 after 24 hrs by microdilution method; type: functional; conditions: NCTC 7973, 24 h

MIC	SMILES
589 µM (≈ 230 µg/mL)	O=C(NN1C(=O)CSC1c1ccccc1Cl)c1nsc2ccccc12 (configuration not stated)

system: Listeria monocytogenes; assay: Bactericidal activity against Listeria monocytogenes NCTC 7973 incubated for 24 hrs followed by serial sub-cultivation and measured after 24 hrs by microdilution method; type: functional; conditions: not given

SMILES	MBC99.5
O=C(NN1C(=O)CSC1c1ccccc1Cl)c1nsc2ccccc12 (configuration not stated)	76.8 ×10⁻² umol/ml

system: Escherichia coli; assay: Antibacterial activity against Escherichia coli ATCC 35210 after 24 hrs by microdilution method; type: functional; conditions: ATCC 35210, 24 h

MIC	SMILES
282 µM (≈ 110 µg/mL)	O=C(NN1C(=O)CSC1c1ccccc1Cl)c1nsc2ccccc12 (configuration not stated)

system: Escherichia coli; assay: Bactericidal activity against Escherichia coli ATCC 35210 incubated for 24 hrs followed by serial sub-cultivation and measured after 24 hrs by microdilution method; type: functional; conditions: not given

SMILES	MBC99.5
O=C(NN1C(=O)CSC1c1ccccc1Cl)c1nsc2ccccc12 (configuration not stated)	38.4 ×10⁻² umol/ml

system: Enterobacter cloacae; assay: Antibacterial activity against Enterobacter cloacae after 24 hrs by microdilution method; type: functional; conditions: not given

MIC	SMILES
205 µM (≈ 79.9 µg/mL)	O=C(NN1C(=O)CSC1c1ccccc1Cl)c1nsc2ccccc12 (configuration not stated)

system: Enterobacter cloacae; assay: Bactericidal activity against Enterobacter cloacae incubated for 24 hrs followed by serial sub-cultivation and measured after 24 hrs by microdilution method; type: functional; conditions: not given

SMILES	MBC99.5
O=C(NN1C(=O)CSC1c1ccccc1Cl)c1nsc2ccccc12 (configuration not stated)	38.4 ×10⁻² umol/ml

system: Pseudomonas aeruginosa; assay: Antibacterial activity against Pseudomonas aeruginosa ATCC 27853 after 24 hrs by microdilution method; type: functional; conditions: ATCC 27853, 24 h

MIC	SMILES
282 µM (≈ 110 µg/mL)	O=C(NN1C(=O)CSC1c1ccccc1Cl)c1nsc2ccccc12 (configuration not stated)

system: Pseudomonas aeruginosa; assay: Bactericidal activity against Pseudomonas aeruginosa ATCC 27853 incubated for 24 hrs followed by serial sub-cultivation and measured after 24 hrs by microdilution method; type: functional; conditions: not given

SMILES	MBC99.5
O=C(NN1C(=O)CSC1c1ccccc1Cl)c1nsc2ccccc12 (configuration not stated)	38.4 ×10⁻² umol/ml

system: Salmonella typhimurium; assay: Antibacterial activity against Salmonella typhimurium ATCC 13311 after 24 hrs by microdilution method; type: functional, Salmonella enterica subsp. enterica serovar Typhimurium; conditions: Salmonella enterica, ATCC 13311, 24 h

MIC	SMILES
205 µM (≈ 79.9 µg/mL)	O=C(NN1C(=O)CSC1c1ccccc1Cl)c1nsc2ccccc12 (configuration not stated)

system: Salmonella typhimurium; assay: Bactericidal activity against Salmonella typhimurium ATCC 13311 incubated for 24 hrs followed by serial sub-cultivation and measured after 24 hrs by microdilution method; type: functional, Salmonella enterica subsp. enterica serovar Typhimurium; conditions: not given

SMILES	MBC99.5
O=C(NN1C(=O)CSC1c1ccccc1Cl)c1nsc2ccccc12 (configuration not stated)	38.4 ×10⁻² umol/ml

system: Aspergillus versicolor; assay: Antifungal activity against Aspergillus versicolor ATCC 11730 after 72 hrs by serial dilution method; type: functional; conditions: ATCC 11730, 72 h

MIC	SMILES
25.6 µM (≈ 9.98 µg/mL)	O=C(NN1C(=O)CSC1c1ccccc1Cl)c1nsc2ccccc12 (configuration not stated)

system: Aspergillus fumigatus; assay: Antifungal activity against Aspergillus fumigatus after 72 hrs by serial dilution method; type: functional; conditions: not given

MIC	SMILES
102 µM (≈ 40 µg/mL)	O=C(NN1C(=O)CSC1c1ccccc1Cl)c1nsc2ccccc12 (configuration not stated)

system: Aspergillus fumigatus; assay: Fungicidal activity against Aspergillus fumigatus incubated for 72 hrs followed by serial sub-cultivation for 72 hrs and measured after 72 hrs by serial dilution method; type: functional; conditions: not given

SMILES	MFC99.5
O=C(NN1C(=O)CSC1c1ccccc1Cl)c1nsc2ccccc12 (configuration not stated)	20.5 ×10⁻² umol/ml

system: Aspergillus versicolor; assay: Fungicidal activity against Aspergillus versicolor ATCC 11730 incubated for 72 hrs followed by serial sub-cultivation for 72 hrs and measured after 72 hrs by serial dilution method; type: functional; conditions: not given

SMILES	MFC99.5
O=C(NN1C(=O)CSC1c1ccccc1Cl)c1nsc2ccccc12 (configuration not stated)	5.1 ×10⁻² umol/ml

system: Aspergillus ochraceus; assay: Antifungal activity against Aspergillus ochraceus ATCC 12066 after 72 hrs by serial dilution method; type: functional; conditions: ATCC 12066, 72 h

MIC	SMILES
102 µM (≈ 39.8 µg/mL)	O=C(NN1C(=O)CSC1c1ccccc1Cl)c1nsc2ccccc12 (configuration not stated)

system: Aspergillus ochraceus; assay: Fungicidal activity against Aspergillus ochraceus ATCC 12066 incubated for 72 hrs followed by serial sub-cultivation for 72 hrs and measured after 72 hrs by serial dilution method; type: functional; conditions: not given

SMILES	MFC99.5
O=C(NN1C(=O)CSC1c1ccccc1Cl)c1nsc2ccccc12 (configuration not stated)	20.5 ×10⁻² umol/ml

system: Aspergillus niger; assay: Antifungal activity against Aspergillus niger ATCC 6275 after 72 hrs by serial dilution method; type: functional; conditions: ATCC 6275, 72 h

MIC	SMILES
102 µM (≈ 39.8 µg/mL)	O=C(NN1C(=O)CSC1c1ccccc1Cl)c1nsc2ccccc12 (configuration not stated)

system: Aspergillus niger; assay: Fungicidal activity against Aspergillus niger ATCC 6275 incubated for 72 hrs followed by serial sub-cultivation for 72 hrs and measured after 72 hrs by serial dilution method; type: functional; conditions: not given

SMILES	MFC99.5
O=C(NN1C(=O)CSC1c1ccccc1Cl)c1nsc2ccccc12 (configuration not stated)	20.5 ×10⁻² umol/ml

system: Trichoderma viride; assay: Antifungal activity against Trichoderma viride IAM 5061 after 72 hrs by serial dilution method; type: functional; conditions: IAM 5061, 72 h

MIC	SMILES
102 µM (≈ 39.8 µg/mL)	O=C(NN1C(=O)CSC1c1ccccc1Cl)c1nsc2ccccc12 (configuration not stated)

system: Trichoderma viride; assay: Fungicidal activity against Trichoderma viride IAM 5061 incubated for 72 hrs followed by serial sub-cultivation for 72 hrs and measured after 72 hrs by serial dilution method; type: functional; conditions: not given

SMILES	MFC99.5
O=C(NN1C(=O)CSC1c1ccccc1Cl)c1nsc2ccccc12 (configuration not stated)	20.5 ×10⁻² umol/ml

system: Talaromyces funiculosus; assay: Antifungal activity against Penicillium funiculosum ATCC 36839 after 72 hrs by serial dilution method; type: functional; conditions: ATCC 36839, 72 h

MIC	SMILES
205 µM (≈ 79.9 µg/mL)	O=C(NN1C(=O)CSC1c1ccccc1Cl)c1nsc2ccccc12 (configuration not stated)

system: Talaromyces funiculosus; assay: Fungicidal activity against Penicillium funiculosum ATCC 36839 incubated for 72 hrs followed by serial sub-cultivation for 72 hrs and measured after 72 hrs by serial dilution method; type: functional; conditions: not given

SMILES	MFC99.5
O=C(NN1C(=O)CSC1c1ccccc1Cl)c1nsc2ccccc12 (configuration not stated)	38.4 ×10⁻² umol/ml

system: Penicillium ochrochloron; assay: Fungicidal activity against Penicillium ochrochloron ATCC 9112 incubated for 72 hrs followed by serial sub-cultivation for 72 hrs and measured after 72 hrs by serial dilution method; type: functional; conditions: not given

SMILES	MFC99.5
O=C(NN1C(=O)CSC1c1ccccc1Cl)c1nsc2ccccc12 (configuration not stated)	76.8 ×10⁻² umol/ml

system: Candida albicans; assay: Antifungal activity against Candida albicans after 72 hrs by serial dilution method; type: functional; conditions: not given

MIC	SMILES
384 µM (≈ 150 µg/mL)	O=C(NN1C(=O)CSC1c1ccccc1Cl)c1nsc2ccccc12 (configuration not stated)

system: Candida albicans; assay: Fungicidal activity against Candida albicans incubated for 72 hrs followed by serial sub-cultivation for 72 hrs and measured after 72 hrs by serial dilution method; type: functional; conditions: not given

SMILES	MFC99.5
O=C(NN1C(=O)CSC1c1ccccc1Cl)c1nsc2ccccc12 (configuration not stated)	76.8 ×10⁻² umol/ml
